Patent publication US20130096067A1, “DROSOPHILA TUMOR STEM CELL MODEL AND USES THEREOF” (priority 2011, published 2013)
Read-outs that look alike come from different tables or passages of the source. Peptide text beside a SMILES is read from it. * marks the point of attachment. Cbz = O=C(OCc1ccccc1)*; CH2F = FC*

System: Raf-1^gof intestinal tumors
Details: for Log2 (fold) of luciferase activity relative to DMSO controls / Fold (luciferase activity relative to DMSO controls): ICCB compounds fed in vials to flies with one-day old Raf-1^gof tumors; for Fold: Table 3 summary of hits, Screen ICCB, luciferase relative to DMSO, fed three consecutive days in vials
[1] = screen of 480 ICCB compounds in vials, compounds fed to flies with one-day old Raf-1^gof tumors, assessed three days later, esg-Gal4 luciferase
[2] = screen of 480 ICCB compounds in vials, compounds fed to flies with one-day old Raf-1^gof tumors, assessed three days later, esg-Gal4 luciferase, averaged from multiple wells
[3] = assessed three days later, averaged from multiple wells
Throughout, for Fold (luciferase activity relative to DMSO controls): test concentration or dose not given here.
Throughout, for Fold (luciferase activity, fold difference relative to DMSO controls): test concentration or dose not given here.
Throughout, for Log2 (fold) (luciferase activity, log2 of the fold difference relative to DMSO controls): test concentration or dose not given here.
Throughout, for Log2 (fold) of luciferase activity relative to DMSO controls: test concentration or dose not given here.

Compound	Log2 (fold) (luciferase activity, log2 of the fold difference relative to DMSO controls) [1]	Fold (luciferase activity, fold difference relative to DMSO controls) [2]	further results
CC(=O)OCOC(c1cc([N+](=O)[O-])ccc1Oc1ccc(Br)cc1)P(=O)(OCOC(C)=O)OCOC(C)=O (centres unmarked) [RWJ-60475-(AM)3]	−0.217	0.861	
O=C(O)c1cc([N+](=O)[O-])ccc1NCCCc1ccccc1 [NPPB]	−0.439	0.738	
CCCCC[C@H](O)/C=C/[C@H]1C=CC(=O)[C@@H]1CCCCCCC(=O)O [PROSTAGLANDIN A1]	−0.522	0.696	
O[C@H]1[C@H]2[C@H](O)CCCN2C[C@H]1O [swainsonine]	−0.233	0.851	
O=C(O)c1ccccc1Nc1ccccc1	−0.355	0.782	
CC(=O)OCOC(c1ccc2ccccc2c1)P(=O)(OCOC(C)=O)OCOC(C)=O (centres unmarked) [HNMPA-(AM)3]			Log2 (fold) of luciferase activity relative to DMSO controls (assessed three days later): −0.049; Fold (luciferase activity relative to DMSO controls) [3]: 0.966 fold
CCCCC[C@H](O)CC[C@H]1[C@H](O)CC(=O)[C@@H]1CCCCCCC(=O)O [13,14-DIHYDRO-PGE1]			Log2 (fold) of luciferase activity relative to DMSO controls (assessed three days later): 0.587; Fold (luciferase activity relative to DMSO controls) [3]: 1.502 fold
CCCCCCCCCCCCCCCCOCC(COP(=O)([O-])OCC[N+](C)(C)C)OC (centres unmarked) [1-HEXADECYL-2-METHYLGLYCERO-3 PC]			Log2 (fold) of luciferase activity relative to DMSO controls (assessed three days later): 0.060; Fold (luciferase activity relative to DMSO controls) [3]: 1.042 fold
C=CC[C@@H]1/C=C(\C)C[C@H](C)C[C@H](OC)[C@H]2O[C@@](O)(C(=O)C(=O)N3CCCC[C@H]3C(=O)O[C@H](/C(C)=C/[C@@H]3CC[C@@H](O)[C@H](OC)C3)[C@H](C)[C@@H](O)CC1=O)[C@H](C)C[C@@H]2OC [FK-506]	−0.699	0.616	
Cn1cnc2c(NCc3ccccc3)nc(NCCO)nc21 [olomoucine]	−0.406	0.755	
COC1=C2C[C@@H](C)C[C@H](OC)[C@H](O)[C@@H](C)/C=C(\C)[C@H](OC(N)=O)[C@@H](OC)/C=C\C=C(/C)C(=O)NC(=CC1=O)C2=O [geldanamycin]	−0.772	0.586	
CC(C)NCC(O)c1ccc(N)c(C#N)c1 (centres unmarked) [CIMATEROL]	−0.598	0.661	
O=C1Nc2ccccc2/C1=C1/Nc2ccccc2C1=O [Indirubin]			Log2 (fold) of luciferase activity relative to DMSO controls (assessed three days later): −0.103; Fold (luciferase activity relative to DMSO controls) [3]: 0.931 fold
COCc1cc(O)c(O)c(O)c1-c1c(COC)cc(O)c(O)c1O [HBDDE]	−0.233	0.851	
Oc1cc(O)cc(/C=C/c2ccc(O)c(O)c2)c1 [Piceatannol, reference compound]	−1.020	0.493	Fold: 0.493 fold
CN1CCN(C2=Nc3cc(Cl)ccc3Nc3ccccc32)CC1 [clozapine]			Log2 (fold) of luciferase activity relative to DMSO controls (assessed three days later): −0.126; Fold (luciferase activity relative to DMSO controls) [3]: 0.916 fold
CCCCC[C@H](O)/C=C/[C@H]1C(=O)C[C@H](O)[C@@H]1C/C=C\CCCC(=O)O [PROSTAGLANDIN D2]	−0.413	0.751	

Compound	Log2 (fold) (luciferase activity, log2 of the fold difference relative to DMSO controls) [1]	Fold (luciferase activity, fold difference relative to DMSO controls) [2]	further results
Clc1ccc(-c2nc3sccn3c2/C=N/OCc2ccc(Cl)c(Cl)c2)cc1 [CITCO]			Log2 (fold) of luciferase activity relative to DMSO controls (assessed three days later): −0.162; Fold (luciferase activity relative to DMSO controls) [3]: 0.894 fold
COC(=O)C[C@H](NC(=O)[C@H](C)NC(=O)[C@@H](NC(=O)OCc1ccccc1)C(C)C)C(=O)CF [zVAD-FMK] (Cbz-Val-Ala-Asp(OMe)-CH2F)	−0.597	0.661	
CC(C)C[C@@H](C=O)NC(=O)[C@H](CC(C)C)NC(=O)[C@H](CC(C)C)NC(=O)OCc1ccccc1 [MG-132] (Cbz-Leu-Leu-Leu-aldehyde)			Log2 (fold) of luciferase activity relative to DMSO controls (assessed three days later): 0.097; Fold (luciferase activity relative to DMSO controls) [3]: 1.070 fold
CCCCCCCC/C=C\C/C=C\C/C=C\CCCC(=O)O [MEAD ACID (20:3 n-9)]	−0.279	0.824	
C=C1[C@@H](O)[C@@H]2O[C@]3(CC[C@H](/C=C/[C@@H](C)[C@@H]4CC(C)=C[C@@]5(O[C@H](C[C@@](C)(O)C(=O)O)CC[C@H]5O)O4)O3)CC[C@H]2O[C@@H]1[C@@H](O)C[C@H](C)[C@H]1O[C@@]2(CCCCO2)CC[C@H]1C [okadaic acid, reference compound]	−1.713	0.305	Fold: 0.305 fold
CCCCCC(O)c1cccc(OCc2ccc3ccccc3n2)c1 (centres unmarked) [REV-5901]	−0.282	0.822	
COC(C)(C)CCCC(C)C/C=C/C(C)=C/C(=O)O (centres unmarked) [METHOPRENE ACID]	−0.328	0.796	
CCCCCCCC(=O)OC[C@H](CO)OC(=O)CCCCCCC [1,2-DIOCTANOYL-SN-GLYCEROL]			Log2 (fold) of luciferase activity relative to DMSO controls (assessed three days later): −0.080; Fold (luciferase activity relative to DMSO controls) [3]: 0.946 fold
CC(=O)N[C@@H](CSC/C=C(\C)CC/C=C(\C)CCC=C(C)C)C(=O)O	−0.664	0.631	
CC(C)(C)c1cc(O)c(C(C)(C)C)cc1O [2,5-ditertbutylhydroquinone]	−0.293	0.816	
CN(C)C(=O)C(CCN1CCC(O)(c2ccc(Cl)cc2)CC1)(c1ccccc1)c1ccccc1 [LOPERAMIDE]			Fold (luciferase activity, fold difference relative to DMSO controls) (in vivo): 0.786; Log2 (fold) (luciferase activity, log2 of the fold difference relative to DMSO controls) (in vivo): −0.347
HA14-1	−0.590	0.664	
CCCCC/C=C\C/C=C\C/C=C\C/C=C\CCCC(=O)O[C@H](COCCCCCCCCCCCCCCCC)COP(=O)([O-])OCC[N+](C)(C)C [ARACHIDONOYL-PAF]	−0.439	0.738	
CCCNCC(O)COc1ccccc1C(=O)CCc1ccccc1 (centres unmarked) [PROPAFENONE]	−0.214	0.862	
CCCCC/C=C\C/C=C\CC1OC1C/C=C\CCCC(=O)O (centres unmarked) [8,9-EPOXYEICOSATRIENOIC ACID]	−0.625	0.649	
CC(C)COCC(CN(Cc1ccccc1)c1ccccc1)N1CCCC1 (centres unmarked) [BEPRIDIL]			Log2 (fold) of luciferase activity relative to DMSO controls (assessed three days later): −0.054; Fold (luciferase activity relative to DMSO controls) [3]: 0.963 fold
